From patent EP2931723B1, “NEW BICYCLIC COMPOUNDS AND THEIR USE AS ANTIBACTERIAL AGENTS AND -LACTAMASE INHIBITORS” (Fedora Pharmaceuticals Inc., priority 2012, dated 2014)

Legend:
Assay in all cases: MIC, antibacterial and synergistic activity
Format in all cases: cell-based
[1] = test system: E.coli JMI 4103; details: E.coli JMI 4103 (KPC-2, Tem-1, CMY-Type)
[2] = test system: P. aerug JMI 149; details: P. aerug JMI 149 (Bla+++D+)
[3] = test system: K. pneumo JMI 4106; details: K. pneumo JMI 4106 (KPC-3, TEM-1, SHV-12, SHV-141)
[4] = test system: E. coli JMI 10767; details: E. coli JMI 10767 (Wt)
[5] = test system: K. pneumo JMI 2674; details: K. pneumo JMI 2674 (CTX-M15 (ESBL)); substance alone
[6] = test system: K. pneumo JMI 4088; details: K. pneumo JMI 4088 (KPC-3 (Cpase)); substance alone
[7] = test system: E. coli JMI 2671
Protocol: (§1) In the Tables 10 - 12, compounds herein disclosed were tested in combination with various antibiotics against metallo β-lactamase producing bacteria. Table 3: Synergy of the inhibitor Ex. 1 (4 µg/mL) in combination with antibiotics

[8] = test system: E. coli JMI 2665
Protocol: as §1

[9] = test system: E. coli JMI 10768; details: E. coli JMI 10768 (CTX-M15 (Weak ESBL))
Protocol: as §1

[10] = test system: E. coli JMI 10767; details: E. coli JMI 10767 (Wt); remark: listed apart in the source
Protocol: as §1

[11] = test system: K. pneumo JMI 2699; details: K. pneumo JMI 2699 (VIM-1, CTX-M3)
Protocol: as §1

[12] = test system: K.pneumo JMI 4109; details: K.pneumo JMI 4109 (SHV-1, SHV-12)
Protocol: as §1

[13] = test system: E. coli JMI 10770; details: E. coli JMI 10770 (CTX-M15 (Hyper ESBL))
Protocol: as §1

[14] = test system: E. coli JMI 10768; details: E. coli JMI 10768 (CTX-M15 (Weak ESBL)); Meropenem + inhibitor at 4 µg/mL
[15] = test system: K. pneumo JMI 2697; details: K. pneumo JMI 2697 (IMP-4 (Cpase))
Protocol: (§2) In the Tables 10 - 12, compounds herein disclosed were tested in combination with various antibiotics against metallo β-lactamase producing bacteria.

[16] = test system: K. pneumo JMI 2693; details: K. pneumo JMI 2693 (NDM-1 (Cpase))
Protocol: as §2

[17] = test system: E. coli JMI 2692; details: E. coli JMI 2692 (NDM-1, TEM-1, CTX-M-15)
Protocol: as §2

[18] = test system: E. coli JMI 11103
[19] = test system: K. pneumo JMI 2681; details: K. pneumo JMI 2681 (Oxa-48 (Cpase))
[20] = test system: E. coli ATCC 25922; details: E. coli ATCC 25922 (Wt)
[21] = test system: E. coli JMI 4080
[22] = test system: P. aerug JMI 2686; details: P. aerug JMI 2686 (KPC-2 (Cpase)); substance alone
[23] = Aztreonam + inhibitor at 4 µg/mL
[24] = Ceftazidime + inhibitor at 4 µg/mL
[25] = Meropenem + inhibitor at 4 µg/mL

O=C(NNC(=O)[C@H]1CC[C@H]2CN1C(=O)N2OS(=O)(=O)O)C1CNC1 (stereo in doubt) [Ex. 9, (2R,5S)-N'-(azetidin-3-ylcarbonyl)-7-oxo-6-(sulfooxy)-1,6-diazabicyclo[3.2.1]octane-2-carbohydrazide]
MIC Aztreonam + inhibitor [1, 23]: ≤0.06 µg/mL | MIC Ceftazidime + inhibitor [1, 24]: 0.5 µg/mL | MIC Meropenem + inhibitor [1, 25]: 0.06 µg/mL | MIC ([1]; Escherichia coli, JMI4103, substance alone): 16 µg/mL | MIC Aztreonam + inhibitor [2, 23]: >4 µg/mL | MIC Ceftazidime + inhibitor [2, 24]: 16 µg/mL | MIC Meropenem + inhibitor [2, 25]: 0.5 µg/mL | MIC ([2]; substance alone, read-out: MIC): 16 µg/mL | MIC Aztreonam + inhibitor [3, 23]: 0.5 µg/mL | MIC Ceftazidime + inhibitor [3, 24]: ≤0.25 µg/mL | MIC Meropenem + inhibitor [3, 25]: 0.125 µg/mL | MIC ([3]; substance alone, read-out: MIC): 8 µg/mL | MIC Meropenem + inhibitor [4, 25]: ≤0.03 µg/mL | MIC ([4]; Escherichia coli, JMI10767, substance alone): > 16 µg/mL | MIC [5]: > 16 µg/mL | MIC [6]: 16 µg/mL | MIC Aztreonam + inhibitor ([7]; E. coli JMI 2671 (VIM-19 (Cpase)), Aztreonam + inhibitor at 4 µg/mL): ≤0.06 µg/mL | MIC Ceftazidime + inhibitor ([7]; E. coli JMI 2671 (VIM-19 (Cpase)), Ceftazidime + inhibitor at 4 µg/mL): 1 µg/mL | MIC Meropenem + inhibitor ([7]; E. coli JMI 2671 (VIM-19 (Cpase)), Meropenem + inhibitor at 4 µg/mL): 0.125 µg/mL | MIC ([7]; Escherichia coli, JMI2671, E. coli JMI 2671 (VIM-19 (Cpase)), substance alone): > 16 µg/mL | MIC Aztreonam + inhibitor ([8]; E. coli JMI 2665 (CMY-2 (Plasmid Cpase)), Aztreonam + inhibitor at 4 µg/mL): ≤0.06 µg/mL | MIC Ceftazidime + inhibitor ([8]; E. coli JMI 2665 (CMY-2 (Plasmid Cpase)), Ceftazidime + inhibitor at 4 µg/mL): ≤0.25 µg/mL | MIC Meropenem + inhibitor ([8]; E. coli JMI 2665 (CMY-2 (Plasmid Cpase)), Meropenem + inhibitor at 4 µg/mL): ≤0.03 µg/mL | MIC ([8]; Escherichia coli, JMI2665): 8 µg/mL | MIC Aztreonam + inhibitor [9, 23]: ≤0.06 µg/mL | MIC Ceftazidime + inhibitor [9, 24]: ≤0.25 µg/mL | MIC ([9]; Escherichia coli, JMI10768, substance alone): > 16 µg/mL | MIC Aztreonam + inhibitor [10, 23]: ≤0.06 µg/mL | MIC Ceftazidime + inhibitor [10, 24]: ≤0.25 µg/mL | MIC Aztreonam + inhibitor [11, 23]: 0.06 µg/mL | MIC Ceftazidime + inhibitor [11, 24]: ≤0.25 µg/mL | MIC Meropenem + inhibitor [11, 25]: 0.5 µg/mL | MIC ([11]; substance alone, read-out: MIC): > 16 µg/mL | MIC Aztreonam + inhibitor [12, 23]: ≤0.06 µg/mL | MIC Ceftazidime + inhibitor [12, 24]: ≤0.25 µg/mL | MIC Meropenem + inhibitor [12, 25]: ≤0.03 µg/mL | MIC Aztreonam + inhibitor [13, 23]: ≤0.06 µg/mL | MIC Ceftazidime + inhibitor [13, 24]: ≤0.25 µg/mL | MIC Meropenem + inhibitor [13, 25]: ≤0.03 µg/mL | MIC Meropenem + inhibitor [14]: ≤0.03 µg/mL | MIC Aztreonam + inhibitor [15, 23]: ≤0.06 µg/mL | MIC Ceftazidime + inhibitor [15, 24]: 8 µg/mL | MIC Meropenem + inhibitor [15, 25]: 2 µg/mL | MIC ([15]; substance alone): 16 µg/mL | MIC Aztreonam + inhibitor [16, 23]: 0.25 µg/mL | MIC Ceftazidime + inhibitor [16, 24]: ≤0.25 µg/mL | MIC Meropenem + inhibitor [16, 25]: 0.125 µg/mL | MIC ([16]; substance alone): > 16 µg/mL | MIC Aztreonam + inhibitor [17, 23]: 1 µg/mL | MIC Ceftazidime + inhibitor [17, 24]: >16 µg/mL | MIC Meropenem + inhibitor [17, 25]: 0.125 µg/mL | MIC ([17]; Escherichia coli, JMI2692, substance alone, read-out: MIC): 8 µg/mL | MIC Aztreonam + inhibitor ([18]; E. coli JMI 11103 (CTX-M15 (Intermediate ESBL)), Aztreonam + inhibitor at 4 µg/mL): ≤0.06 µg/mL | MIC Ceftazidime + inhibitor ([18]; E. coli JMI 11103 (CTX-M15 (Intermediate ESBL)), Ceftazidime + inhibitor at 4 µg/mL): ≤0.25 µg/mL | MIC Meropenem + inhibitor ([18]; E. coli JMI 11103 (CTX-M15 (Intermediate ESBL)), Meropenem + inhibitor at 4 µg/mL): ≤0.03 µg/mL | MIC ([18]; Escherichia coli, JMI11103, E. coli JMI 11103 (CTX-M15 (Intermediate ESBL)), substance alone): > 16 µg/mL | MIC Aztreonam + inhibitor [19, 23]: 0.25 µg/mL | MIC Ceftazidime + inhibitor [19, 24]: ≤0.25 µg/mL | MIC Meropenem + inhibitor [19, 25]: >2 µg/mL | MIC ([19]; substance alone, read-out: MIC): > 16 µg/mL | MIC Aztreonam + inhibitor [20, 23]: ≤0.06 µg/mL | MIC Ceftazidime + inhibitor [20, 24]: ≤0.25 µg/mL | MIC Meropenem + inhibitor [20, 25]: ≤0.03 µg/mL | MIC ([20]; Escherichia coli, ATCC25922, substance alone): > 16 µg/mL | MIC Aztreonam + inhibitor ([21]; E. coli JMI 4080 (Tem-10), Aztreonam + inhibitor at 4 µg/mL): ≤0.06 µg/mL | MIC Ceftazidime + inhibitor ([21]; E. coli JMI 4080 (Tem-10), Ceftazidime + inhibitor at 4 µg/mL): 0.25 µg/mL | MIC Meropenem + inhibitor ([21]; E. coli JMI 4080 (Tem-10), Meropenem + inhibitor at 4 µg/mL): ≤0.03 µg/mL | MIC ([21]; Escherichia coli, JMI4080, E. coli JMI 4080 (Tem-10), substance alone): 16 µg/mL | MIC [22]: 16 µg/mL
